Assay results taken from ChEMBL document CHEMBL1201862, “PubChem BioAssay data set” (2004).
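Following 48 hours of exposure in 96-well plates, responses at five concentrations were used to interpolate endpoints linearly. At the GI50, growth is halved.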 Calls of active or inactive are those of the source. Cut-off read from the data, not from the text of the source: active = GI50 up to about 1.1 µM and inactive = higher.

Assays:
Assay in all cases: growth of human tumour cells (NCI), 48 h
786-0 = tested on: 786-0
ACHN = tested on: ACHN
EKVX = tested on: EKVX
HOP-62 = tested on: HOP-62
HOP-92 = tested on: HOP-92
KM12 = tested on: KM12
M14 = tested on: M14
MDA-MB-435 = tested on: MDA-MB-435
Malme-3M = tested on: Malme-3M
NCI-H226 = tested on: NCI-H226
NCI-H460 = tested on: NCI-H460
NCI/ADR-RES = tested on: NCI/ADR-RES
OVCAR-4 = tested on: OVCAR-4
OVCAR-5 = tested on: OVCAR-5
PC-3 = tested on: PC-3
RXF 393 = tested on: RXF 393
SF-268 = tested on: SF-268
SK-MEL-5 = tested on: SK-MEL-5
U-251 = tested on: U-251
UACC-62 = tested on: UACC-62

Structure (SMILES) | GI50 (786-0) | GI50 (ACHN) | GI50 (EKVX) | GI50 (HOP-62) | GI50 (HOP-92) | GI50 (KM12) | GI50 (M14) | GI50 (MDA-MB-435) | GI50 (Malme-3M) | GI50 (NCI-H226) | GI50 (NCI-H460) | GI50 (NCI/ADR-RES) | GI50 (OVCAR-4) | GI50 (OVCAR-5) | GI50 (PC-3) | GI50 (RXF 393) | GI50 (SF-268) | GI50 (SK-MEL-5) | GI50 (U-251) | GI50 (UACC-62)
CC(=O)O[C@H]1C(=O)N(c2cc3c4ccccc4ccc3c3ccccc23)[C@@H]1c1ccccc1 | 3.79 µM (inactive) | 6.38 µM (inactive) | 14.6 µM (inactive) | 5.16 µM (inactive) | 17.5 µM (inactive) | 2.9 µM (inactive) | 4.38 µM (inactive) | 1.61 µM (inactive) | 5.38 µM (inactive) | 3.33 µM (inactive) | 4.31 µM (inactive) | 4.38 µM (inactive) | 4.66 µM (inactive) | 15.7 µM (inactive) | 7.82 µM (inactive) | 2.72 µM (inactive) | 7.24 µM (inactive) | 3.24 µM (inactive) | 7.33 µM (inactive) | 3.15 µM (inactive)
COc1cc2c(/C=C3/C(=O)N(C)c4ccc(O)cc43)c(Cl)[nH]c2cc1C | 0.362 µM (active) | 0.532 µM (active) | 1.57 µM (inactive) | 0.327 µM (active) | 17.2 µM (inactive) | 0.356 µM (active) | 0.238 µM (active) | 0.0284 µM (active) | 0.179 µM (active) | 0.516 µM (active) | 0.454 µM (active) | 0.703 µM (active) | 1.8 µM (inactive) | 3.79 µM (inactive) | 1.38 µM (inactive) | 0.475 µM (active) | 2.07 µM (inactive) | 0.282 µM (active) | 0.402 µM (active) | 0.281 µM (active)
Cc1cccc2c(=O)c3c(O)cc(O)cc3n(C)c12 | > 100 µM (inactive) | > 100 µM (inactive) | 7.41 µM (inactive) | > 100 µM (inactive) | 91.4 µM (inactive) | > 100 µM (inactive) | > 100 µM (inactive) | > 100 µM (inactive) | > 100 µM (inactive) | > 100 µM (inactive) | > 100 µM (inactive) | > 100 µM (inactive) | > 100 µM (inactive) | > 100 µM (inactive) | > 100 µM (inactive) | > 100 µM (inactive) | > 100 µM (inactive) | > 100 µM (inactive) | > 100 µM (inactive) | > 100 µM (inactive)
CC(C)(CN1CCCCC1)C(=O)CC(SCCS(=O)(=O)O)c1ccc(Cl)c(Cl)c1 (stereo not given) | 1.86 µM (inactive) | 3.29 µM (inactive) | 6.59 µM (inactive) | 6.47 µM (inactive) | 1.76 µM (inactive) | 5.71 µM (inactive) | 1.92 µM (inactive) | 2.21 µM (inactive) | 4.1 µM (inactive) | 20 µM (inactive) | 2.22 µM (inactive) | 3.21 µM (inactive) | 3.52 µM (inactive) | 3.78 µM (inactive) | 4.94 µM (inactive) | 3.16 µM (inactive) | 3.72 µM (inactive) | 8.73 µM (inactive) | 7.13 µM (inactive) | 3.13 µM (inactive)
CCCCC(=O)Oc1ccc2c(C)cc(=O)oc2c1 | > 100 µM (inactive) | > 100 µM (inactive) | > 100 µM (inactive) | > 100 µM (inactive) | 26.2 µM (inactive) | > 100 µM (inactive) | > 100 µM (inactive) | > 100 µM (inactive) | > 100 µM (inactive) | > 100 µM (inactive) | > 100 µM (inactive) | > 100 µM (inactive) | > 100 µM (inactive) | > 100 µM (inactive) | > 100 µM (inactive) | > 100 µM (inactive) | > 100 µM (inactive) | > 100 µM (inactive) | > 100 µM (inactive) | > 100 µM (inactive)
COC(=O)[C@@H]1[C@@H](c2cccc(Cl)c2)[C@H](C(=O)OC)C2(C[C@@]1(C)O)NCCS2 (stereo not given in full) | 74.6 µM (inactive) | > 100 µM (inactive) | > 100 µM (inactive) | 92.3 µM (inactive) | 73.6 µM (inactive) | 48.8 µM (inactive) | 39.1 µM (inactive) | 52.5 µM (inactive) | > 100 µM (inactive) | > 100 µM (inactive) | 48.4 µM (inactive) | 91.6 µM (inactive) | 46.7 µM (inactive) | > 100 µM (inactive) | 31.4 µM (inactive) | 49.4 µM (inactive) | > 100 µM (inactive) | 44.9 µM (inactive) | > 100 µM (inactive) | 73.5 µM (inactive)
CCN(CC)CCn1c2cc3c(cc2c(=O)c2cccnc21)OCO3 | 4.45 µM (inactive) | 3.52 µM (inactive) | 5.14 µM (inactive) | 3.61 µM (inactive) | 6.95 µM (inactive) | 5.94 µM (inactive) | 4.95 µM (inactive) | 4.71 µM (inactive) | 4.84 µM (inactive) | 5.01 µM (inactive) | 3.06 µM (inactive) | 4.93 µM (inactive) | 5.36 µM (inactive) | 4.44 µM (inactive) | 7.43 µM (inactive) | 5.86 µM (inactive) | 6.71 µM (inactive) | 2.77 µM (inactive) | 6.65 µM (inactive) | 8.75 µM (inactive)
O=[N+]([O-])c1ccc(C2NC(=S)NC3c4cc([N+](=O)[O-])ccc4CCCC23)cc1 (stereo not given) | 97.1 µM (inactive) | 63.4 µM (inactive) | 77.3 µM (inactive) | 57.4 µM (inactive) | 15.4 µM (inactive) | > 100 µM (inactive) | > 100 µM (inactive) | > 100 µM (inactive) | > 100 µM (inactive) | 53.5 µM (inactive) | > 100 µM (inactive) | > 100 µM (inactive) | 56.4 µM (inactive) | > 100 µM (inactive) | 55.7 µM (inactive) | 18.2 µM (inactive) | 46.8 µM (inactive) | > 100 µM (inactive) | 44.9 µM (inactive) | 31.2 µM (inactive)
Cc1ccc(C(C2C(=O)N(C)C(=O)N(C)C2=O)C(F)(F)C(=O)N(C)C)cc1 (stereo not given) | > 100 µM (inactive) | > 100 µM (inactive) | > 100 µM (inactive) | > 100 µM (inactive) | > 100 µM (inactive) | > 100 µM (inactive) | > 100 µM (inactive) | > 100 µM (inactive) | > 100 µM (inactive) | > 100 µM (inactive) | > 100 µM (inactive) | > 100 µM (inactive) | > 100 µM (inactive) | > 100 µM (inactive) | > 100 µM (inactive) | > 100 µM (inactive) | > 100 µM (inactive) | > 100 µM (inactive) | > 100 µM (inactive) | > 100 µM (inactive)
COC(=O)[C@@]12CC[C@]1(C(=O)OC)C1C(C)=CC(=O)O[C@@]12C (stereo not given in full) | > 100 µM (inactive) | > 100 µM (inactive) | > 100 µM (inactive) | > 100 µM (inactive) | > 100 µM (inactive) | > 100 µM (inactive) | > 100 µM (inactive) | > 100 µM (inactive) | > 100 µM (inactive) | > 100 µM (inactive) | > 100 µM (inactive) | > 100 µM (inactive) | > 100 µM (inactive) | > 100 µM (inactive) | > 100 µM (inactive) | > 100 µM (inactive) | > 100 µM (inactive) | > 100 µM (inactive) | > 100 µM (inactive) | > 100 µM (inactive)
COc1ccc(C2NC(=S)Nc3c2c(=O)oc2c3ccc3ccccc32)cc1 (stereo not given) | 80.7 µM (inactive) | 67.6 µM (inactive) | 27.4 µM (inactive) | 87.9 µM (inactive) | 41.8 µM (inactive) | 58.3 µM (inactive) | 45.6 µM (inactive) | 86.3 µM (inactive) | > 100 µM (inactive) | 32.2 µM (inactive) | 96.6 µM (inactive) | 81.5 µM (inactive) | 69.2 µM (inactive) | > 100 µM (inactive) | 54.7 µM (inactive) | > 100 µM (inactive) | > 100 µM (inactive) | > 100 µM (inactive) | 40.6 µM (inactive) | 45.7 µM (inactive)
O=[As](O)(O)c1ccc(/N=N/c2ccc([As](=O)(O)O)cc2)cc1 | > 100 µM (inactive) | > 100 µM (inactive) | > 100 µM (inactive) | > 100 µM (inactive) | > 100 µM (inactive) | > 100 µM (inactive) | > 100 µM (inactive) | > 100 µM (inactive) | > 100 µM (inactive) | > 100 µM (inactive) | > 100 µM (inactive) | > 100 µM (inactive) | > 100 µM (inactive) | > 100 µM (inactive) | > 100 µM (inactive) | > 100 µM (inactive) | > 100 µM (inactive) | > 100 µM (inactive) | > 100 µM (inactive) | > 100 µM (inactive)
CC[C@H](C)[C@H]1NC(=O)[C@@H](NC(=O)[C@@H](CC(C)C)N(C)C(=O)C2CCCN2C(=O)[C@H](C)O)[C@@H](C)OC(=O)[C@@H]2Cc3ccccc3CN2C(=O)[C@@H]2CCCN2C(=O)[C@H](CC(C)C)NC(=O)[C@@H](C)C(=O)[C@H](C(C)C)OC(=O)C[C@@H]1O (stereo not given in full) | 0.368 µM (active) | 1.55 µM (inactive) | 2.52 µM (inactive) | 0.385 µM (active) | 1.58 µM (inactive) | 0.104 µM (active) | 1.17 µM (inactive) | 0.374 µM (active) | 0.34 µM (active) | 1.6 µM (inactive) | 0.171 µM (active) | > 100 µM (inactive) | 0.641 µM (active) | 0.822 µM (active) | 0.317 µM (active) | 0.802 µM (active) | 0.327 µM (active) | 0.164 µM (active) | 0.0586 µM (active) | 0.106 µM (active)
